{"source": "patent US6946458B2", "about": "“N-thiolated beta-lactams: novel antibacterial agents for methicillin-resistant Staphylococcus aureus” (University of South Florida, priority 1999, dated 2005)", "experiment_in_all_cases": "Kirby-Bauer agar disk diffusion", "assay_type_in_all_cases": "cell-based, Staphylococcus aureus", "key": {"MRSA USF652": {"tested_on": "MRSA USF652", "design": "Kirby-Bauer Disc Diffusion Test Results: unit not given here", "settings": "for Kirby-Bauer Disc Diffusion Test Results: Table 5, beta-lactamase producing strain; for Zones of Inhibition: Table 4, 20 μg disk loading", "experimental": "(§1) In this study, a selection of N-methylthio-substituted β-lactams are examined for antimicrobial activity by the Kirby-Bauer disk diffusion method on agar plates. A variety of common Gram-positive and Gram-negative bacteria are tested, including clinical isolates of methicillin-resistant Staphylococcus aureus (MRSA).\n(§2) Compound susceptibility measurements are obtained from agar disk diffusion experiments using 6-mm air-dried disks impregnated with 20 μg of the test compound. The values correspond to the average diameters in mm (triplicate experiments) for the zone of growth inhibition observed after 24 h. Staphylococcus aureus (ATCC 25923) and β-lactamase-producing strains of methicillin-resistant Staphylococcus aureus (labeled as MRSA USF652-659) are obtained from Lakeland Regional Medical Center, Lakeland, Fla. Staphylococcus epidermidis, Staphylococcus simulans, Staphylococcus simulans, and Microcossus luteus are clinical isolates from University of South Florida Medical Clinic. Nieserria gonnorhoeae (β-lactamase positive) is obtained from the Tampa Branch State Laboratory. PenG is penicillin G (potassium salt). Table 1 provides the zones of growth inhibition that are observed after 24 hours using the lactams of FIGS. 1A-1I (designated A-I, respectively).\n(§3) Of particular interest is the ability of these compounds to retain their effectiveness against penicillin-resistant strains of Staphylococcus aureus, a dangerous hospital-borne pathogen which is becoming difficult to treat with conventional antibiotic therapy. The lactams were screened for antibacterial activity by disk diffusion on agar plates, and the resulting zones of bacterial growth inhibition measured (see Table 3; each lactam is designated by Figure number).\n(§4) Table 3: Growth inhibition zones obtained from agar disk diffusion experiments using 6-mm air-dried disks impregnated with 20 μg of the test compound. The values correspond to the average diameters in mm for the zone of growth inhibition observed after 24 hours. Staphylococcus aureus and β-lactamase-producing strains of methicillin-resistant Staphylococcus aureus (labeled MRSA USF652-659) are obtained from a clinical testing laboratory at Lakeland Regional Medical Center, Lakeland, Fla.\n(§5) Those compounds were tested for bioactivity using the Kirby-Bauer test on agar plates.\n(§6) Biological activity is enhanced against β-lactamase producing strains of methicillin-resistant Staphylococcus aureus (MRSA). With the lactam shown in FIG. 11A serving as a lead structure, a series of other C-4 substituted derivatives (FIGS. 11B-11I) were investigated herein. Table 5 lists microbiological data for β-lactams from Kirby-Bauer Disc Diffusion Test Results (with each lactam identified by Figure number).\n(§7) Scheme I summarizes the synthesis of ester compounds 4. 4-Carboxy benzaldehyde (1) is coupled with the appropriate alcohol using DCC/DMAP, followed by reaction with p-anisidine, to give imines 2. Staudinger coupling of methoxyacetyl chloride with imine 2 gives N-aryl protected β-lactam 3. N-Dearylation of β-lactam 3 with ceric ammonium nitrate and methylthiolation with N-(methylthio)phthalimide affords N-methylthio β-lactams 4. These compounds are tested for antibacterial activity by the Kirby-Bauer method of disc diffusion on agar plates. [drawing 7]"}, "MRSA USF653": {"tested_on": "MRSA USF653", "design": "Kirby-Bauer Disc Diffusion Test Results: unit not given here", "settings": "for Kirby-Bauer Disc Diffusion Test Results: Table 5, beta-lactamase producing strain; for Zones of Inhibition: Table 4, 20 μg disk loading", "experimental": "as §1, §2, §3, §4, §5, §6, §7"}, "MRSA USF657": {"tested_on": "MRSA USF657", "design": "Kirby-Bauer Disc Diffusion Test Results: unit not given here", "settings": "for Kirby-Bauer Disc Diffusion Test Results: Table 5, beta-lactamase producing strain; for Zones of Inhibition: Table 4, 20 μg disk loading", "experimental": "as §1, §2, §3, §4, §5, §6, §7"}, "MRSA USF658": {"tested_on": "MRSA USF658", "design": "Kirby-Bauer Disc Diffusion Test Results: unit not given here", "settings": "for Kirby-Bauer Disc Diffusion Test Results: Table 5, beta-lactamase producing strain; for Zones of Inhibition: Table 4, 20 μg disk loading", "experimental": "as §1, §2, §3, §4, §5, §6, §7"}, "MRSA USF655": {"tested_on": "MRSA USF655", "design": "Kirby-Bauer Disc Diffusion Test Results: unit not given here", "settings": "for Kirby-Bauer Disc Diffusion Test Results: Table 5; for Zones of Inhibition: Table 4, 20 μg disk loading", "experimental": "as §1, §2, §3, §4, §5, §6, §7"}, "MRSA USF659": {"tested_on": "MRSA USF659", "design": "Kirby-Bauer Disc Diffusion Test Results: unit not given here", "settings": "for Kirby-Bauer Disc Diffusion Test Results: Table 5, beta-lactamase producing strain; for Zones of Inhibition: Table 4, 20 μg disk loading", "experimental": "as §1, §2, §3, §4, §5, §6, §7"}, "MRSA USF656": {"tested_on": "MRSA USF656", "design": "Kirby-Bauer Disc Diffusion Test Results: unit not given here", "settings": "for Kirby-Bauer Disc Diffusion Test Results: Table 5, beta-lactamase producing strain; for Zones of Inhibition: Table 4, 20 μg disk loading", "experimental": "as §1, §2, §3, §4, §5, §6, §7"}, "MRSA USF654": {"tested_on": "MRSA USF654", "design": "Kirby-Bauer Disc Diffusion Test Results: unit not given here", "settings": "for Kirby-Bauer Disc Diffusion Test Results: Table 5, beta-lactamase producing strain; for Zones of Inhibition: Table 4, 20 μg disk loading", "experimental": "as §1, §2, §3, §4, §5, §6, §7"}, "Staph aureus 525": {"tested_on": "Staph aureus 525", "settings": "for Kirby-Bauer Disc Diffusion Test Results: Table 5; for Zones of Inhibition: Table 4, 20 μg disk loading"}}}
{"smiles": "COC1C(=O)N(SC)C1c1cccc(Cl)c1", "note": "(racemic) [FIG. 11G]", "values": [{"measurement": "Kirby-Bauer Disc Diffusion Test Results", "setting": "MRSA USF652", "value": 26}, {"measurement": "Kirby-Bauer Disc Diffusion Test Results", "setting": "MRSA USF653", "value": 28}, {"measurement": "Kirby-Bauer Disc Diffusion Test Results", "setting": "MRSA USF657", "value": 25}, {"measurement": "Kirby-Bauer Disc Diffusion Test Results", "setting": "MRSA USF658", "value": 22}, {"measurement": "Kirby-Bauer Disc Diffusion Test Results", "setting": "MRSA USF655", "value": 23}, {"measurement": "Kirby-Bauer Disc Diffusion Test Results", "setting": "MRSA USF659", "value": 15}, {"measurement": "Kirby-Bauer Disc Diffusion Test Results", "setting": "MRSA USF656", "value": 26}, {"measurement": "Kirby-Bauer Disc Diffusion Test Results", "setting": "MRSA USF654", "value": 21}, {"measurement": "Kirby-Bauer Disc Diffusion Test Results", "setting": "Staph aureus 525", "value": 24}]}
{"smiles": "COC1C(=O)N(SC)C1c1ccccc1", "note": "(racemic) [FIG. 11B]", "values": [{"measurement": "Kirby-Bauer Disc Diffusion Test Results", "setting": "MRSA USF652", "value": 30}, {"measurement": "Kirby-Bauer Disc Diffusion Test Results", "setting": "MRSA USF653", "value": 30}, {"measurement": "Kirby-Bauer Disc Diffusion Test Results", "setting": "MRSA USF657", "value": 28}, {"measurement": "Kirby-Bauer Disc Diffusion Test Results", "setting": "MRSA USF658", "value": 27}, {"measurement": "Kirby-Bauer Disc Diffusion Test Results", "setting": "MRSA USF655", "value": 26}, {"measurement": "Kirby-Bauer Disc Diffusion Test Results", "setting": "MRSA USF659", "value": 24}, {"measurement": "Kirby-Bauer Disc Diffusion Test Results", "setting": "MRSA USF656", "value": 28}, {"measurement": "Kirby-Bauer Disc Diffusion Test Results", "setting": "MRSA USF654", "value": 26}, {"measurement": "Kirby-Bauer Disc Diffusion Test Results", "setting": "Staph aureus 525", "value": 25}]}
{"smiles": "COC1C(=O)N(SC)C1c1c(Cl)cccc1Cl", "note": "(racemic) [FIG. 11I]", "values": [{"measurement": "Kirby-Bauer Disc Diffusion Test Results", "setting": "MRSA USF652", "value": 24}, {"measurement": "Kirby-Bauer Disc Diffusion Test Results", "setting": "MRSA USF653", "value": 26}, {"measurement": "Kirby-Bauer Disc Diffusion Test Results", "setting": "MRSA USF657", "value": 20}, {"measurement": "Kirby-Bauer Disc Diffusion Test Results", "setting": "MRSA USF658", "value": 20}, {"measurement": "Kirby-Bauer Disc Diffusion Test Results", "setting": "MRSA USF655", "value": 20}, {"measurement": "Kirby-Bauer Disc Diffusion Test Results", "setting": "MRSA USF659", "value": 17}, {"measurement": "Kirby-Bauer Disc Diffusion Test Results", "setting": "MRSA USF656", "value": 22}, {"measurement": "Kirby-Bauer Disc Diffusion Test Results", "setting": "MRSA USF654", "value": 21}, {"measurement": "Kirby-Bauer Disc Diffusion Test Results", "setting": "Staph aureus 525", "value": 24}]}
{"smiles": "CCCCSN1C(=O)C(OC)C1c1ccccc1Cl", "note": "(racemic) [Butylthio]", "values": [{"measurement": "Zones of Inhibition", "setting": "MRSA USF652", "value": 26, "unit": "mm"}, {"measurement": "Zones of Inhibition", "setting": "MRSA USF653", "value": 27, "unit": "mm"}, {"measurement": "Zones of Inhibition", "setting": "MRSA USF657", "value": 26, "unit": "mm"}, {"measurement": "Zones of Inhibition", "setting": "MRSA USF658", "value": 20, "unit": "mm"}, {"measurement": "Zones of Inhibition", "setting": "MRSA USF655", "value": 23, "unit": "mm"}, {"measurement": "Zones of Inhibition", "setting": "MRSA USF659", "value": 24, "unit": "mm"}, {"measurement": "Zones of Inhibition", "setting": "MRSA USF656", "value": 25, "unit": "mm"}, {"measurement": "Zones of Inhibition", "setting": "MRSA USF654", "value": 23, "unit": "mm"}, {"measurement": "Zones of Inhibition", "setting": "Staph aureus 525", "value": 25, "unit": "mm"}]}
{"smiles": "CCSN1C(=O)C(OC)C1c1ccccc1Cl", "note": "(racemic) [Ethylthio]", "values": [{"measurement": "Zones of Inhibition", "setting": "MRSA USF652", "value": 33, "unit": "mm"}, {"measurement": "Zones of Inhibition", "setting": "MRSA USF653", "value": 33, "unit": "mm"}, {"measurement": "Zones of Inhibition", "setting": "MRSA USF657", "value": 29, "unit": "mm"}, {"measurement": "Zones of Inhibition", "setting": "MRSA USF658", "value": 30, "unit": "mm"}, {"measurement": "Zones of Inhibition", "setting": "MRSA USF655", "value": 28, "unit": "mm"}, {"measurement": "Zones of Inhibition", "setting": "MRSA USF659", "value": 30, "unit": "mm"}, {"measurement": "Zones of Inhibition", "setting": "MRSA USF656", "value": 29, "unit": "mm"}, {"measurement": "Zones of Inhibition", "setting": "MRSA USF654", "value": 27, "unit": "mm"}, {"measurement": "Zones of Inhibition", "setting": "Staph aureus 525", "value": 26, "unit": "mm"}]}
{"smiles": "COC1C(=O)N(SC)C1c1cccs1", "note": "(racemic) [FIG. 11E]", "values": [{"measurement": "Kirby-Bauer Disc Diffusion Test Results", "setting": "MRSA USF652", "value": 28}, {"measurement": "Kirby-Bauer Disc Diffusion Test Results", "setting": "MRSA USF653", "value": 28}, {"measurement": "Kirby-Bauer Disc Diffusion Test Results", "setting": "MRSA USF657", "value": 26}, {"measurement": "Kirby-Bauer Disc Diffusion Test Results", "setting": "MRSA USF658", "value": 26}, {"measurement": "Kirby-Bauer Disc Diffusion Test Results", "setting": "MRSA USF655", "value": 29}, {"measurement": "Kirby-Bauer Disc Diffusion Test Results", "setting": "MRSA USF659", "value": 24}, {"measurement": "Kirby-Bauer Disc Diffusion Test Results", "setting": "MRSA USF656", "value": 28}, {"measurement": "Kirby-Bauer Disc Diffusion Test Results", "setting": "MRSA USF654", "value": 27}, {"measurement": "Kirby-Bauer Disc Diffusion Test Results", "setting": "Staph aureus 525", "value": 27}]}
{"smiles": "CCC(C)SN1C(=O)C(OC)C1c1ccccc1Cl", "note": "(mixture of isomers) [sec-Butyl]", "values": [{"measurement": "Zones of Inhibition", "setting": "MRSA USF652", "value": 38, "unit": "mm"}, {"measurement": "Zones of Inhibition", "setting": "MRSA USF653", "value": 34, "unit": "mm"}, {"measurement": "Zones of Inhibition", "setting": "MRSA USF657", "value": 33, "unit": "mm"}, {"measurement": "Zones of Inhibition", "setting": "MRSA USF658", "value": 35, "unit": "mm"}, {"measurement": "Zones of Inhibition", "setting": "MRSA USF655", "value": 34, "unit": "mm"}, {"measurement": "Zones of Inhibition", "setting": "MRSA USF659", "value": 33, "unit": "mm"}, {"measurement": "Zones of Inhibition", "setting": "MRSA USF656", "value": 36, "unit": "mm"}, {"measurement": "Zones of Inhibition", "setting": "MRSA USF654", "value": 35, "unit": "mm"}, {"measurement": "Zones of Inhibition", "setting": "Staph aureus 525", "value": 32, "unit": "mm"}]}
